One experiment concerns HT-29. As to the kind of experiment: Cytotoxicity against human HT-29 cells assessed as reduction in cell viability by Sulforhodamine B assay. It counts as functional, cell-based. On the technique in general: Sulforhodamine B stains cellular protein and so reports cell mass.
The next experiment relates to MCF7. As to the kind of experiment: Cytotoxicity against human MCF7 cells assessed as reduction in cell viability by Sulforhodamine B assay. It counts as functional, cell-based.
Experiment [1] in a line: Cytotoxicity against rat ASK cells assessed as reduction in cell viability by Sulforhodamine B assay. Type of experiment: functional, cell-based.
A further experiment relates to KB. The experiment is described as follows: Cytotoxicity against human KB cells assessed as reduction in cell viability by Sulforhodamine B assay. Type of experiment: functional, cell-based.
A further experiment relates to A549. The experiment is described as follows: Cytotoxicity against human A549 cells assessed as reduction in cell viability by Sulforhodamine B assay. It counts as functional, cell-based.
The next experiment deals with HEK293. The experiment is described as follows: Cytotoxicity against HEK293 cells assessed as reduction in cell viability by Sulforhodamine B assay. It counts as cell-based. The settings on record: Homo sapiens.
The test system of a further experiment is P388. The experiment is described as follows: Cytotoxicity against mouse P388 cells assessed as reduction in cell viability by Sulforhodamine B assay. Type of experiment: functional, cell-based.

`COC(=O)C1=CO[C@@H](O[C@H]2O[C@@H](CO[Si](c3ccccc3)(c3ccccc3)C(C)(C)C)[C@H](OC(C)=O)[C@@H](OC(C)=O)[C@@H]2OC(C)=O)[C@@H]2[C@@](C)(O)[C@@H](OC(=O)/C=C/c3ccccc3)C[C@]12O`: the IC50 (commonly the midpoint of a concentration-inhibition curve) in the experiment with HT-29 is 37.2 µM; with MCF7, over 50 µM; in experiment [1], over 50 µM; in the experiment on KB it was over 50 µM; in the experiment on A549 it was over 50 µM; with HEK293 it was over 50 µM. In the experiment with P388, the IC50 turned out to be 6.11 µM.

With `COC(=O)C1=CO[C@@H](O[C@H]2O[C@@H](CO[Si](c3ccccc3)(c3ccccc3)C(C)(C)C)[C@H](OC(C)=O)[C@@H](OC(C)=O)[C@@H]2OC(C)=O)[C@@H]2[C@@](C)(O)[C@@H](OC(C)=O)C[C@]12O`, the half-inhibitory concentration (IC50) with HT-29 was 35 µM; with MCF7 it was 9.01 µM; in experiment [1], 9.19 µM; in the experiment on KB it was 14.7 µM; with A549, 8.2 µM; in the experiment with HEK293, 7.4 µM. Further, in the experiment with P388, the IC50 stood at 3.67 µM.

With `Cc1c2ccncc2c(C)c2c1[nH]c1ccccc12` [ELLIPTECINE], the IC50 in the experiment with HT-29 is 2 µM; in the experiment with MCF7, 1.99 µM; in experiment [1], 2.02 µM; with KB it was 2.15 µM; in the experiment with A549, 1.96 µM; in the experiment with HEK293 it was 1.9 µM. Also, in the experiment with P388, the 50% inhibitory concentration (IC50) worked out at 1.84 µM.

As for `COC(=O)C1=CO[C@@H](O[C@H]2O[C@@H](CO[Si](C)(C)C(C)(C)C)[C@H](OC(C)=O)[C@@H](OC(C)=O)[C@@H]2OC(C)=O)[C@@H]2[C@@](C)(O)[C@@H](OC(=O)/C=C/c3ccccc3)C[C@]12O`, the IC50 with HT-29 is over 50 µM; with MCF7, 43.3 µM; in experiment [1] it was over 50 µM; with KB, over 50 µM; in the experiment on A549, over 50 µM; with HEK293 it was 31.8 µM. Moreover, the IC50 in the experiment with P388 was determined as 3.11 µM.

Consider `COC(=O)C1=CO[C@@H](O[C@H]2O[C@@H](COC(C)=O)[C@H](OC(C)=O)[C@@H](OC(C)=O)[C@@H]2OC(C)=O)[C@@H]2[C@@](C)(O)[C@@H](OC(=O)/C=C/c3ccccc3)C[C@]12O`, for which the IC50 (with HT-29; in the experiment with MCF7; in experiment [1]; in the experiment with KB; in the experiment with A549; in the experiment with HEK293) was over 50 µM each time. Also, in the experiment with P388, the IC50 was over 50 µM.

On to `COC(=O)C1=CO[C@@H](O[C@H]2O[C@@H](COC(C)=O)[C@H](OC(C)=O)[C@@H](OC(C)=O)[C@@H]2OC(C)=O)[C@@H]2[C@@](C)(OC(C)=O)[C@@H](OC(=O)/C=C/c3ccccc3)C[C@]12O`, for which the IC50 with HT-29 was over 50 µM; with MCF7 it was over 50 µM; in experiment [1], over 50 µM; in the experiment with KB it was over 50 µM; with A549, over 50 µM; in the experiment with HEK293, 45 µM. For the same compound, in the experiment with P388, the IC50 was over 50 µM.

Turning to `COC(=O)C1=CO[C@@H](O[C@H]2O[C@@H](CO)[C@H](O)[C@@H](O)[C@@H]2O)[C@@H]2[C@@](C)(O)[C@@H](OC(=O)/C=C/c3ccccc3)C[C@]12O`, the 50% inhibitory concentration (IC50) (in the experiment with HT-29; in the experiment with MCF7; in experiment [1]; with KB; in the experiment on A549; in the experiment on HEK293) was over 50 µM each time. Besides, in the experiment on P388, the 50% inhibitory concentration (IC50) was over 50 µM.

These data come from ChEMBL document CHEMBL4118115, “Synthetic analogues of durantoside I from Citharexylum spinosum L. and their cytotoxic activity” (Bioorg Med Chem Lett, 2018).
